{
  "source": "patent US20080021016A1",
  "about": "“Combined Pharmaceutical Composition for the Inhibition of the Decline of Cognitive Functions” (priority 2004, published 2008)",
  "origin": "cited, not measured here",
  "key": {"central 5-HT2C receptors": {"target": "T1, central 5-HT2C receptors (Homo sapiens, UniProt P28335)", "T1 sequence (P28335 33-458)": "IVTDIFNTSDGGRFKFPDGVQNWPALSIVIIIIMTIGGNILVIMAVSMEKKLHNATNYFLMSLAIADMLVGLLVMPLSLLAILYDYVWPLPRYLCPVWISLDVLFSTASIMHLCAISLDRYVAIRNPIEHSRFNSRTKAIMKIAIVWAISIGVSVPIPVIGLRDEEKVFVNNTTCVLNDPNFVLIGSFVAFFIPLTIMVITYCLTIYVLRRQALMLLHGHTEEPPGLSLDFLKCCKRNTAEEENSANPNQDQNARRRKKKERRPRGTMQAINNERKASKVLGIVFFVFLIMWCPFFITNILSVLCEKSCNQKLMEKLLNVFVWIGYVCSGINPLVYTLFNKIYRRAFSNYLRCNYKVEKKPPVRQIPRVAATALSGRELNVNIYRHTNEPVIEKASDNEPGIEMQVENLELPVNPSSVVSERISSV"}, "[1]": {"details": "1 and 10 mg/kg after oral administration"}, "central 5-HT2A receptors": {"target": "central 5-HT2A receptors (Homo sapiens, UniProt P28223)", "sequence (P28223 whole entry)": "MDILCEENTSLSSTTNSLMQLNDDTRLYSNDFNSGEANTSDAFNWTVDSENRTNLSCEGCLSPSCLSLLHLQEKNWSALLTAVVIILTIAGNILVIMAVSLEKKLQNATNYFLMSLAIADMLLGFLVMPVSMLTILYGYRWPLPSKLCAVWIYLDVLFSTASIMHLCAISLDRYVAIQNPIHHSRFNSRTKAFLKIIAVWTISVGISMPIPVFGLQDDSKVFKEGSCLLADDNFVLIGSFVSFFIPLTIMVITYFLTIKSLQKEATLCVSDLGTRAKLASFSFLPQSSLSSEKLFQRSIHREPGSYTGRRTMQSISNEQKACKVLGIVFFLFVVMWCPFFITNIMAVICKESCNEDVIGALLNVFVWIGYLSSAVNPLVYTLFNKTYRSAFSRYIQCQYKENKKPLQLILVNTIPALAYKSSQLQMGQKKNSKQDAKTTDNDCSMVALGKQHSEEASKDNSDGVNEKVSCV"}, "[2]": {"details": "10 and 30 mg/kg after oral treatment"}, "[3]": {"details": "single oral dose of 3 mg/kg sc."}, "[4]": {"details": "single 0.7 mg/kg oral treatment"}},
  "data": [
    {"substance": "(1R,2S,4R)-(-)-2-[N,N-(dimethylaminoethoxy)]-2-phenyl-1,7,7-trimethylbicyclo[2.2.1]heptane [deramciclane]", "values": [
      {"measurement": "binding to central 5-HT2C receptors", "setting": "central 5-HT2C receptors", "value": "significantly bound"},
      {"measurement": "activity in the Vogel punished drinking test", "setting": "[1]", "value": "active"},
      {"measurement": "binding to central 5-HT2A receptors", "setting": "central 5-HT2A receptors", "value": "significantly bound"},
      {"measurement": "activity in the marble burying model", "setting": "[2]", "value": "active"},
      {"measurement": "activity in the light-dark model", "setting": "[3]", "value": "active"},
      {"measurement": "time spent with social interactions", "setting": "[4]", "value": "increased the time spent with social interactions"}
    ]}
  ]
}
